In series [1] the test system is platelets in whole blood (ADP pathway). Put plainly: DBCM platelet assay (ADP pathway), activation residual rate AR3 by Method 3. Type of series: cell-based, human. Conditions: citrated whole blood of healthy volunteers spiked with ticagrelor; final blood concentration 400 nM and above; ADP 13 μM; DCS74 feature value. The procedure: In this experiment, the operating sequence of the dielectric coagulation analyzer experimental machine developed for dielectric blood coagulometry (also simply herein referred to as “DBCM”) was used with some modifications to realize a platelet assay.
When the measurement is started, 200 μL of citric acid-added blood sample is dispensed into a disposable cartridge into which a reagent(s) has been introduced in advance, and the mixture is mixed and stirred by automatic pipetting with a suction volume of about 200 μL. […]
Immediately after the completion of stirring, the dielectric permittivity measurement was started, and a change in the blood dielectric permittivity associated with blood coagulation was recorded at a measurement frequency of from 10 kHz to 10 MHz, a measurement time of 60 min, and a measurement time interval of 5 sec. […]
Meanwhile, in Methods 1 and 2, the response upper limit was obtained when the measurement was conducted without adding any agonist experimentally. […] In this regard, however, the ideal measured value should be obtained when 215 mM lyophilized calcium chloride reagent without any agonist is used and the number of stirring operations is changed to 5 times which is the minimum so as to prevent some of the platelets from being activated and reacted due to stirring-induced shear stress. […]

For series [2] the following is noted: single oral administration of 200 mg; cited from earlier work.

As for `CCCSc1nc(N[C@@H]2C[C@H]2c2ccc(F)c(F)c2)c2nnn([C@@H]3C[C@H](OCCO)[C@@H](O)[C@H]3O)c2n1` [ticagrelor], the “platelet activation residual rate AR3 (%)” value in series [1] was not above 30%. Further, in series [2], the maximum plasma concentration is given as 923 ng/mL.
